Data on twelve compounds can be found in PubChem BioAssay (NCI).

Each structure is given as a SMILES string.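 Protocol summary: plate cells (96-well), add compound at 5 concentrations, incubate 48 h, interpolate endpoints linearly. The concentration for full growth arrest is given as TGI.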 Where only a bound is given, the exact number is not on record here.

Some test systems named below: SK-OV-3 ovarian; 786-0 renal; CAKI-1 renal; KM12 colon; OVCAR-3 ovarian; MCF7 breast; OVCAR-4 ovarian; SK-MEL-28 melanoma; UO-31 renal; COLO 205 colon.
Holding throughout (test): DTP human tumour cell line panel, 48 h

Broadly, the TGI is the concentration giving total growth inhibition. On to `CCOC(=O)C1=CC(C)(C(=O)OCC)Nc2c(nc(OC)n(C)c2=O)N1` (stereo not given), for which the TGI in the assay on SK-OV-3 ovarian, in the assay with 786-0 renal, in the assay with CAKI-1 renal, in the assay with KM12 colon, in the assay with OVCAR-3 ovarian and in the assay with MCF7 breast was above 10 µM each time. Moreover, the TGI in the assay with OVCAR-4 ovarian, in the assay with SK-MEL-28 melanoma, in the assay with UO-31 renal and in the assay on COLO 205 colon was above 10 µM in each case.
With `Cc1cc2nc3c(C#N)c(-c4ccccc4)cc(Nc4ccc(Cl)cc4)n3c2cc1C`, the concentration for total growth inhibition (TGI) with SK-OV-3 ovarian, in the assay with 786-0 renal, in the assay on CAKI-1 renal, in the assay on KM12 colon, in the assay on OVCAR-3 ovarian and in the assay on MCF7 breast was above 100 µM in each case. The TGI in the assay on OVCAR-4 ovarian, in the assay on SK-MEL-28 melanoma, in the assay with UO-31 renal and in the assay on COLO 205 colon was above 100 µM in each case.
Take `CC(C)(C)c1cc(C(P(=O)(c2ccccc2)c2ccccc2)P(=O)(c2ccccc2)c2ccccc2)cc(C(C)(C)C)c1O`: the TGI with SK-OV-3 ovarian is above 10 µM; with 786-0 renal it was 7.23 µM; with CAKI-1 renal, 9.9 µM; with KM12 colon, 3.37 µM; with OVCAR-3 ovarian it was 5.41 µM; in the assay on MCF7 breast, above 8.8 µM. Moreover, the TGI in the assay with OVCAR-4 ovarian was above 10 µM; with SK-MEL-28 melanoma, 4.71 µM; in the assay with UO-31 renal, 6.99 µM; in the assay on COLO 205 colon, 3.31 µM.
Take `CC(=O)c1c2c(cc3c1CC1(Cc4ccccc4C1=O)C3)CCC2` (stereo not given): the TGI in the assay with SK-OV-3 ovarian is above 100 µM; in the assay on 786-0 renal, 95.9 µM; in the assay with CAKI-1 renal, 66 µM; in the assay with KM12 colon, 49 µM; in the assay with OVCAR-3 ovarian, 52.7 µM; in the assay on MCF7 breast it was 44.3 µM. The TGI in the assay on OVCAR-4 ovarian is above 100 µM; in the assay with SK-MEL-28 melanoma, 68.4 µM; in the assay with UO-31 renal, above 100 µM; with COLO 205 colon, 30.7 µM.
On to `CCc1nc(N)nc(N)c1-c1ccc(Cl)c(Cl)c1`, for which the TGI in the assay on SK-OV-3 ovarian, with 786-0 renal, in the assay on CAKI-1 renal, with KM12 colon, in the assay with OVCAR-3 ovarian and in the assay on MCF7 breast was above 100 µM throughout. The TGI in the assay on OVCAR-4 ovarian, with SK-MEL-28 melanoma, with UO-31 renal and in the assay with COLO 205 colon was above 100 µM throughout.
Consider `COc1cc(Nc2cnc3cc(F)c(F)cc3n2)cc(OC)c1OC`, for which the TGI in the assay on SK-OV-3 ovarian, with 786-0 renal, in the assay with CAKI-1 renal, in the assay on KM12 colon, in the assay with OVCAR-3 ovarian and in the assay with MCF7 breast was above 100 µM throughout. Moreover, the TGI in the assay with OVCAR-4 ovarian, in the assay on SK-MEL-28 melanoma, in the assay with UO-31 renal and with COLO 205 colon was above 100 µM throughout.
As for `CNn1c(-c2ccccc2)n[nH]c1=O`, the TGI in the assay on SK-OV-3 ovarian, in the assay on 786-0 renal, with CAKI-1 renal, in the assay on KM12 colon, with OVCAR-3 ovarian and with MCF7 breast was above 100 µM throughout. In addition, the TGI with OVCAR-4 ovarian, with SK-MEL-28 melanoma, with UO-31 renal and in the assay on COLO 205 colon was above 100 µM in each case.
For `CN1C(=O)N/C(=C\c2ccc(S(=O)(=O)NN)cc2)C1=O`, the TGI in the assay on SK-OV-3 ovarian, in the assay on 786-0 renal, in the assay on CAKI-1 renal, in the assay with KM12 colon, in the assay on OVCAR-3 ovarian and in the assay with MCF7 breast was above 100 µM each time. Besides, the TGI in the assay on OVCAR-4 ovarian, in the assay on SK-MEL-28 melanoma, in the assay on UO-31 renal and in the assay with COLO 205 colon was above 100 µM each time.
For the compound `CCSc1n/c(=C\c2ccco2)c2nnnn12`, the total growth inhibition concentration (TGI) with SK-OV-3 ovarian, in the assay on 786-0 renal, with CAKI-1 renal, in the assay with KM12 colon, in the assay on OVCAR-3 ovarian and in the assay on MCF7 breast was above 100 µM in each case. For the same compound, the TGI with OVCAR-4 ovarian, in the assay on SK-MEL-28 melanoma, in the assay with UO-31 renal and with COLO 205 colon was above 100 µM throughout.
Turning to `Nc1nc(N)c2[nH]c(CNc3ccc(C(=O)O)cc3)nc2n1`, the TGI in the assay with SK-OV-3 ovarian, in the assay with 786-0 renal, in the assay with CAKI-1 renal, in the assay on KM12 colon, in the assay with OVCAR-3 ovarian and in the assay with MCF7 breast was above 100 µM throughout. The TGI with OVCAR-4 ovarian, with SK-MEL-28 melanoma, in the assay with UO-31 renal and in the assay with COLO 205 colon was above 100 µM throughout.
`Cc1ccc(S(=O)(=O)N/N=C/C(=C/c2ccc(Cl)cc2)CC(/C=N/NS(=O)(=O)c2ccc(C)cc2)=C\c2ccc(Cl)cc2)cc1`: the TGI in the assay on SK-OV-3 ovarian was above 100 µM; in the assay on 786-0 renal, 4.38 µM; with CAKI-1 renal, 68.4 µM; with KM12 colon, 47.2 µM; with OVCAR-3 ovarian it was 12.2 µM; in the assay on MCF7 breast, 12.6 µM. Moreover, the TGI in the assay with OVCAR-4 ovarian is 24.8 µM; with SK-MEL-28 melanoma it was 20.2 µM; in the assay with UO-31 renal it was 18.7 µM; in the assay on COLO 205 colon, 16.9 µM.
With `CCCCCCCCCCCCCCCCCCNc1ccn(C2OC(COP(=O)(O)OCC3OC(n4cc(C)c(=O)[nH]c4=O)CC3O)C(O)C2O)c(=O)n1` (stereo not given), the TGI is 31.8 µM in the assay on SK-OV-3 ovarian; 31.9 µM in the assay on 786-0 renal; 33.2 µM in the assay with CAKI-1 renal; 36.4 µM in the assay on KM12 colon; 39.7 µM with OVCAR-3 ovarian; above 100 µM in the assay on MCF7 breast. In addition, the TGI amounted to 39.4 µM with OVCAR-4 ovarian, 31.3 µM with SK-MEL-28 melanoma, 33.9 µM in the assay on UO-31 renal and 28.1 µM in the assay on COLO 205 colon.
